Reference: PMC3929521, “Optimization (Central Composite Design) and Validation of HPLC Method for Investigation of Emtricitabine Loaded Poly(lactic-co-glycolic acid) Nanoparticles: In Vitro Drug Release and In Vivo Pharmacokinetic Studies” (The Scientific World Journal, 2014)
Like-named read-outs stand apart in the source and are kept apart here.

How the values were obtained:
[1] = in vivo
Description: The pharmacokinetic studies were carried out in healthy male Wistar rats (250–300 g). The animals were fasted overnight before dosing with free access to water. The animals were acclimatized to laboratory conditions over the week before experiments and fed with standard rat diet, under controlled conditions of a 12 : 12 h light : dark cycle, with a temperature of 22 ± 3°C and relative humidity of 50 ± 5% RH. The experimental protocol was approved by the Institutional Animal Ethical Committee (AACP/IAEC/Jun-2012-02).
Eighteen rats were randomly separated into three groups (six animals in each group).
At regular time intervals 0, 1, 2, 4, 6, 8, 12, and every 24 h, for 10 days, samples of blood were withdrawn (100 μL) from the retroorbital plexus by microcapillary technique under light ether anesthesia into heparinized microcentrifuge tubes (50 units heparin/mL of blood).
The supernatant was decanted into a China dish and evaporated to dryness at room temperature. This was further reconstituted with 100 μL of mobile phase and vortexed for 30 s and 20 μL was injected into an HPLC system. Emtricitabine was detected at a wavelength of 280 nm. The proficiency of nanoparticulate formulations was appraised by administering pure drug orally and measuring the blood levels at 0, 0.25, 0.5, 1.5, 2, 3, 4, 6, 8, 12 and 24 h.

[2] = rat plasma, n = 6
Description: Bench-top stability was investigated to ensure that emtricitabine was not degraded in plasma samples at room temperature for a time period to cover the sample preparation. It was measured by divulging the QC samples to ambient laboratory conditions for 10 h. Freeze-thaw stability was measured over three cycles. Because of the need for occasional delayed injection of extraction samples, the stability of reconstituted samples was assessed at ambient temperature for 24 h. The freezer storage stability of emtricitabine in rat plasma at −20°C was evaluated by assaying QC samples at the beginning and one week later. All stability QC samples were analyzed in six replicates.

[3] = male Wistar rats, oral, 15 mg/kg/rat, n = 6, mean ± SD, listed as Free emtricitabine, 15 mg/kg
[4] = male, Wistar, rat, plasma, po, 15 mg/kg
[5] = Bench-top stability, ambient temperature (25°C) for 4 h, spiked 0.1 μg/mL
[6] = Bench-top stability, ambient temperature (25°C) for 4 h, spiked 0.8 μg/mL
[7] = Bench-top stability, ambient temperature (25°C) for 4 h, spiked 2.0 μg/mL
[8] = Freeze-thaw stability, after three freeze-thaw cycles, spiked 0.1 μg/mL
[9] = Freeze-thaw stability, after three freeze-thaw cycles, spiked 0.8 μg/mL
[10] = Freeze-thaw stability, after three freeze-thaw cycles, spiked 2.0 μg/mL
[11] = One-week stability, stored at −16°C, spiked 0.1 μg/mL
[12] = One-week stability, stored at −16°C, spiked 0.8 μg/mL
[13] = One-week stability, stored at −16°C, spiked 2.0 μg/mL

AUMC0–∞ ([1]; male Wistar rats, oral, 15 mg/kg/rat, n = 6, mean ± SD): 178.32 ± 15.095 µg/mL∗h | AUC0–∞ [1, 3]: 14.835 ± 0.450 µg/mL∗h | t max [1, 3]: 2.0 ± 0.006 h | Cmax [1, 4]: 1700 ± 17 ng/mL | MRT [1, 4]: 12 ± 0.67 h | half-life [1, 4]: 9.37 ± 0.58 h | k el [1, 4]: 2.06e-05 s⁻¹ | AUC(0-inf) ([1]; male, Wistar, rat, plasma, po, 15 mg/kg, AUC0–∞, male Wistar rats, 15 mg/kg/rat, n = 6, mean ± SD): 14800 ng·h/mL | t max ([1]; male, Wistar, rat, plasma, po, 15 mg/kg, t max, male Wistar rats, 15 mg/kg/rat, n = 6, mean ± SD): ≤ 2 h | AUC(0-inf) ([1]; male, Wistar, rat, plasma, po, 15 mg/kg/rat, AUC0−∞ (Figure 6), Wistar rats, mean ± SEM): 14800 ± 184 ng·h/mL | Accuracy [2, 5]: 96.0% | Mean determined concentration [2, 5]: 0.096 µg/mL | Accuracy [2, 6]: 97.87% | Mean determined concentration [2, 6]: 0.783 µg/mL | Accuracy [2, 7]: 97.20% | Mean determined concentration [2, 7]: 1.944 µg/mL | Accuracy [2, 8]: 99.00% | Mean determined concentration [2, 8]: 0.099 µg/mL | Accuracy [2, 9]: 99.37% | Mean determined concentration [2, 9]: 0.795 µg/mL | Accuracy [2, 10]: 99.75% | Mean determined concentration [2, 10]: 1.995 µg/mL | Accuracy [2, 11]: 93.00% | Mean determined concentration [2, 11]: 0.093 µg/mL | Accuracy [2, 12]: 93.25% | Mean determined concentration [2, 12]: 0.746 µg/mL | Accuracy [2, 13]: 95.55% | Mean determined concentration [2, 13]: 1.911 µg/mL
Structure (SMILES): Nc1nc(=O)n([C@@H]2CS[C@H](CO)O2)cc1F [Emtricitabine, 5-fluoro-1-(2R, 5S)-[2-(hydroxymethyl)-1,3-oxathiolan-5-yl]cytosine]
